# Test results taken from patent US20260027073A1, “USE OF SMALL-MOLECULE COMPOUND HAVING NAPHTHYLAMINE STRUCTURE” (HANGZHOU PHECDAMED CO., LTD., priority 2023, published 2026).
# Assays:
# [1] = In vitro liver microsomal stability test
# Experimental: Ketanserin was selected as the reference compound. The specific method was as follows:
# 0.1 M K3PO4 (pH 7.4) buffer and 3×NADPH stock solution (6 mM, 5 mg/mL) were configured and preheated in a 37° C. water bath; configuration of the test compounds and the control compounds (spiking solution): adding 5 μL of the compound stock solution ([…]) into 95 μL of acetonitrile; configuration of 1.5 μM spiking solution in microsomes (0.75 mg/mL): adding 1.5 μL of spiking solution and 18.75 μL of liver microsomal solution (20 mg/mL) into 479.75 μL of K3PO4 buffer; adding 30 μL of spiking solution in microsomes into the multiwell plate, and incubating at 37° C. for 5 min; adding 15 μL of NADPH storage solution into each well to start to react, and timing; adding 150 μL of acetonitrile solution containing IS at 0 min, 5 min, 15 min, 30 min, and 45 min, respectively, stopping the reaction; oscillating for 10 min, and then centrifuging at 6,000 rpm for 15 min; taking 80 μL of supernatant from each well for LC/MS detection, and calculating T1/2.
# [2] = tested on: middle artery occlusion model in rats; test: Stroke: middle cerebral artery occlusion (MCAO); assay type: in vivo, SD rats; conditions: for escape latency (water maze) / number of crossing over the platform (water maze) / apoptosis rate of hippocampal neurons (flow cytometry): 30 mg/kg oral gavage; for escape latency (water maze) / number of crossing over the platform (water maze): 8 weeks; for escape latency (water maze): FIG. 82; for number of crossing over the platform (water maze): FIG. 83; for apoptosis rate of hippocampal neurons (flow cytometry): FIG. 84
# Description: 7-8 weeks-old SD male rats were selected and adaptively fed for one week to establish a middle artery occlusion model in rats. After inducing anesthesia in rats using a small animal anesthesia machine, the anesthesia was immediately switched to maintenance, the rats were fixed in the supine position on the operating table, the neck in the middle and the right side of the operative part were shaved, and an incision was made in the middle of the neck after disinfection with alcohol and iodine vapors, and the carotid artery was separated along the tissues under the microscope, to avoid damaging blood vessels and nerves and to reduce the amount of hemorrhage; the electrocoagulation pen was used to cut off small arteries in the paracarotid branch and ligate the external carotid artery, and an another loose knot was played for backup; arterial clips were used to clip the proximal end of internal carotid artery and common carotid artery; the external carotid artery was cut with surgical scissors in the […], the filament was inserted carefully, and the marking point reached the bifurcation of internal and external carotid arteries, which meant that the head of the filament has already reached the middle cerebral artery; the skin was sutured, the symptoms were observed when the animal waked up, and the neurological function was evaluated; the suture line was cut open two hours after the surgery, the filament was drawn out, and ligature the remnant of external carotid artery was ligated tightly. The skin was re-sutured and attention was paid to the postoperative care of the rats. After modeling, drug administration was started in groups, which were divided into three groups: model group (model, treated with 0.5% CMC-Na by oral gavage, n=8) TJ01-013 treatment group (TJ01-013, 30 mg/kg TJ01-013 by oral gavage, n=8), and I-14-1 treatment group (I-14-1, 30 mg/kg I-14-1 by oral gavage, n=8). 8). Another normal control group (Control, 0.5% CMC-Na treatment by oral gavage, n=8) was set up, with performing the corresponding surgical operation, but no carotid artery was ligated and no filament insertion was performed, and the normal control group was administered for a total of 8 weeks, and at the end of the administration, the cognitive function of the rats was examined by using the water maze.
# The night before the experiment begins, clean the laboratory and the water maze, the old water in the water maze is drained, the animal excreta should be cleaned up, and the laboratory is ventilated and free of special odor. The water maze was filled with fresh water, and the height of the water surface should be about 2 cm higher than the platform, and the four groups of rats underwent the water maze acclimatization training for 5 days. The above training was divided into a 4-day localization navigation experiment and a 1-day spatial exploration experiment. The water maze device was a circular pool, which was divided into quadrants I, II, III and IV with four equidistant points on the wall, and a circular hidden platform was placed in the center of the fourth quadrant. References were around the pool and kept unchanged, the pool and the platform were black, and black ink was poured into the water and mixed thoroughly so that the rats could not see the circular platform. The temperature of the water was kept at 22˜24° C. and the light in the room was stabilized. For each group of rats, a water maze test was performed at the end of drug administration to examine the cognitive status of the experimental animals. […] The four groups of rats underwent this training for 4 days, four times a day, two times in the morning and two times in the afternoon. At the end of each day, the experimenter thoroughly cleaned the water maze apparatus to prevent the odor of the rats in the water maze from affecting the results of the second day of the experiment. […]
# [3] = tested on: CUP model mice; test: Multiple sclerosis CUP model; assay type: in vivo, C57BL/6; conditions: for number of open arm entries (elevated cross maze) / walking distance (elevated cross maze) / open arm time (elevated cross maze) / number of crossing over the platform (water maze): 30 mg/kg oral gavage; for number of open arm entries (elevated cross maze): FIG. 86; for walking distance (elevated cross maze): FIG. 87; for open arm time (elevated cross maze): FIG. 88; for number of crossing over the platform (water maze): FIG. 89
# Experimental: After one week of adaptive feeding in 7-8 weeks C57BL/6 female […], they were randomly divided into four groups according to their body weights: the normal control group (Control, 0.5% CMC-Na treatment by oral gavage, n=8), the model group (model, 0.5% CMC-Na treatment by oral gavage, n=8), TJ01-013 treatment group (TJ01-013, 30 mg/kg TJ01-013 by oral gavage, n=8), I-14-1 treatment group (I-14-1, oral gavage 30 mg/kg I-14-1, n=8). The normal control group was fed with the basal diet throughout for 12 weeks, and the model group, TJ01-013 treatment group, and I-14-1 treatment group were fed with 0.2% CUP diet throughout. All groups were administered 5 ml/kg in a volume of 5 ml/kg for a total of 12 weeks starting 6 weeks after modeling.
# The elevated cross maze consisted of two open arms (35 cm×6 cm) and two closed arms (35 cm×6 cm×14 cm), with the middle area (6 cm×6 cm) and a height of 70 cm above the ground, and the mice were placed in the middle area facing the open arms, and were active for 5 min in a 50 cm×50 cm open field prior to the start of the test. During the test, the activity time, the activity distance and the number of open arm entries in the mice were counted. Each mouse was wiped with 75% alcohol on the maze after the test.
# The mice were placed in a basin with a diameter of 70 cm and a height of 30 cm, and the water temperature was about 22-24° C. The basin was divided into four quadrants, and a platform with a diameter of 5 cm was placed in the target quadrant, which was placed 1 cm below the surface of the water. The mice were acclimatized for 1 day before the official test and learned for 4 days, during learning, the mice entered the water in the direction of facing the wall of the basin, and were given 60 s to search for the platform, or else were guided to learn for 30 s on the platform, and the time that the mice found the platform during learning was recorded. The platform was withdrawn on the day of the test, and the number of crossing over the platform after entering from the opposite quadrant of the target quadrant in mice was recorded to determine the spatial learning and memory ability of the mice.
SMILES,liver microsomal stability (elimination half-life T1/2) ([1]; microsomes),escape latency (water maze) [2],number of crossing over the platform (water maze) [2],apoptosis rate of hippocampal neurons (flow cytometry) [2],therapeutic effect of TJ01-013 compared with I-14-1 ([2]; per readout of the block),number of open arm entries (elevated cross maze) [3],walking distance (elevated cross maze) [3],open arm time (elevated cross maze) [3],number of crossing over the platform (water maze) [3],treatment of TJ01-013 compared with I-14-1 ([3]; per readout of the block),"liver microsomal stability (elimination half-life T1/2) ([1]; in vitro mouse or human liver microsomal environment, FIG. 19)"
O=C(O)C[S+]([O-])c1cc(NS(=O)(=O)c2ccc(Br)cc2)c2ccccc2c1O (stereo not drawn) [I-1],superior liver microsomal stability,shorten the escape latency,increased,significantly reduce,significantly better,significantly reduced,reduced,significantly decreased,increased,significantly better,–
O=C(O)C[S+]([O-])c1cc(NS(=O)(=O)c2ccc(C(F)(F)F)cc2)c2ccccc2c1O (stereo not drawn) [I-14-1],–,shorten the escape latency,increased,significantly reduce,–,significantly reduced,reduced,significantly decreased,increased,–,–
"O=C(O)CSc1cc(NS(=O)(=O)c2ccc(Br)cc2)c2ccccc2c1O [UMI-77, reference compound]",–,–,–,–,–,–,–,–,–,–,unstable
